Measurements from US10766869B2, “Triazoles for the treatment of demyelinating dieases” (Vertex Pharmaceuticals Incorporated, priority 2015, dated 2020).
Read-outs that look alike come from different tables or passages of the source.

Tested on: primary rat mixed cortical cells
Assay: In vitro myelination assay (MBP positive myelin strands, fold myelin pixels above background)
Type: cell-based
Settings: Rattus norvegicus; for fold induction at 1 µM: 1.0 μM compound; for fold induction at 10 µM: 10.0 μM compound
Source text: In Vitro Myelination Assay
Compounds were screened for their ability to induce myelination using a primary rat mixed cortical cell culture assay, which contains neurons, oligodendrocyte precursor cells, oligodendrocytes, astrocytes and microglia. The assay quantifies myelination by measuring myelin basic protein (MBP) immunofluorescent positive myelin strands from images taken using a Cellomics Array Scan (model Arrayscan VTI HCS Reader) or a Molecular Devices Image Xpress (model IXM XL) high content imager. The myelin strands were quantitated using a custom created myelin detection software program. Test compounds were dissolved in DMSO to make a 10 mM initial stock solution. Dilutions were made in myelination medium to obtain the final solutions for the assay and were tested in primary rat mixed cortical cells at selected doses.
Primary rat mixed cortical cells were prepared from harvested cerebral cortices from postnatal day 1 (P1) rats (P1 Rat CD® IGS pups) were purchased from Charles River) in Complete Dissociation Medium, wherein the meninges were removed and the cortical tissue chopped with a razor blade into ˜1 mm^3 pieces. Tissue from 1-3 pups was collected and placed into 15 ml conical tubes in a total volume of 5 ml of Complete Dissociation Medium. Activated papain (3 ml) was added to each 15 ml conical tube and tissue was incubated at 37° C. for 30 minutes. After the 30 minute incubation, DNase (Sigma D4527; 75 μl of a 1 mg/ml stock) was added to each tube, followed by mechanical trituration using a 2 ml serological pipette and autopipettor to gently dissociate the tissue. Following trituration, larger tissue pieces were allowed to settle by gravity, and the supernatant containing dissociated cells was transferred to a 50 ml conical tube with 4 ml of trypsin inhibitor. Cells were pelleted by centrifugation, resuspended in myelination medium and filtered through a 40 μm filter. Cells were then seeded in 96-well plates (BD Biosciences, Black, PDL-coated, Cat. No. 356640) at 87,500-95,000 cells/well in a final volume of 200 μl of Myelination Medium in the presence or absence of compound and cultured for 14 days in a humidified 37° C. incubator with 5% CO2. Half the medium was removed and replaced with fresh medium containing 1× compound on days 6 and 10. Using a Biotek automatic plate washer (model Biomek® FXP Laboratory Automation Workstation), cells were fixed with 4% paraformaldehyde on day 14, washed with PBS and blocked in 5% normal goat serum (Vector Laboratories, S-1000) in 0.1% PBS-TritonX-100 (PBST) for 1 hour. Cells were stained with 1:500 anti-MBP (Covance, cat # SMI99) primary antibody in 1% normal goat serum in 0.1% PBST for 2 hours at room temperature followed by 2 washes with PBST. A final incubation in secondary antibody (1:1000, Invitrogen, Alexa-488 anti-mouse IgG2b) and 1:10,000 Hoechst dye in 1% normal goat serum in 0.1% PBST was performed for 2 hours at room temperature. Plates were washed with PBS and then scanned on a Cellomics Array Scan using a 10× objective (25 images per well) or the Image Xpress using a 10× objective (9 image per well). Images were analyzed using Vertex myelin detection software (described below) to quantify total MBP myelin pixels per well. Fold myelin pixels above background at two concentrations (1.0 μM and 10.0 μM) relative to baseline of no added compound are reported below in Table 4. Standard deviation for each compound concentration was calculated using all replicates and using a standard deviation formula commonly used in the art.
One of skill in the art would recognize that for this type of primary neuronal mixed cell assay variability between different assay runs is to be expected even though the protocol is the same for each assay run. For instance, variability may be due to small differences in cell viability, cell density, age of the animals, etc.
Vertex Myelin Detection Software: […]

[1] = relative to baseline of no added compound, read-out: Fold myelin pixels above background
[2] = relative to baseline of no added compound, read-out: Fold myelin pixels above background, 1.0 μM
[3] = relative to baseline of no added compound, read-out: Fold myelin pixels above background, 10.0 μM
[4] = read-out: Fold myelin pixels above background relative to baseline of no added compound

Row | Structure (SMILES) | fold induction at 1 µM [1] | fold induction at 10 µM [1] | fold induction at 1 µM [2] | fold induction at 10 µM [3] | fold induction at 1 µM [4] | fold induction at 10 µM [4]
1 | N#Cc1cc(Nc2ncn(-c3cccnc3)n2)cc(N2CCOCC2)c1 [Compound 763, 3-morpholino-5-[[1-(3-pyridyl)-1,2,4-triazol-3-yl]amino]benzonitrile] | 10 to 100 | 10 to 100 | – | – | – | –
2 | Cc1ccc(-n2cnc(Nc3cc(C)cc(N4CCN(C5COC5)CC4)c3)n2)cc1 [Compound 70, N-[3-methyl-5-[4-(oxetan-3-yl)piperazin-1-yl]phenyl]-1-(p-tolyl)-1,2,4-triazol-3-amine] | – | – | ≤ 1 | 10 to 100 | – | –
3 | Cc1cc(Nc2ncn(-c3cc(F)cc(N4CC[C@@H](F)C4)c3)n2)cc(N2CCN(C3COC3)CC2)c1 [Compound 467, 1-[3-fluoro-5-[(3R)-3-fluoropyrrolidin-1-yl]phenyl]-N-[3-methyl-5-[4-(oxetan-3-yl)piperazin-1-yl]phenyl]-1,2,4-triazol-3-amine] | 100 to 1000 | 10 to 100 | – | – | – | –
4 | Cc1cc(Nc2ncn(-c3cc(F)cc(F)c3)n2)cc(N2C[C@H]3C[C@@H]2CO3)c1 [Compound 628, 1-(3,5-difluorophenyl)-N-[3-methyl-5-[(1R,4R)-2-oxa-5-azabicyclo[2.2.1]heptan-5-yl]phenyl]-1,2,4-triazol-3-amine] | 10 to 100 | 1 to 10 | – | – | – | –
5 | Cc1cc(Nc2ncn(-c3cc(F)cc(F)c3)n2)cc(C2CCN(C3COC3)CC2)c1 [Compound 221, 1-(3,5-difluorophenyl)-N-[3-methyl-5-[1-(oxetan-3-yl)-4-piperidyl]phenyl]-1,2,4-triazol-3-amine] | – | – | 1 to 10 | 100 to 1000 | – | –
6 | Cc1cc(Nc2ncn(-c3ccc(F)c(F)c3)n2)cc(OC2CCOC2)c1 (stereo not shown) [Compound 778, 1-(3,4-difluorophenyl)-N-(3-methyl-5-tetrahydrofuran-3-yloxy-phenyl)-1,2,4-triazol-3-amine] | 10 to 100 | 1 to 10 | – | – | – | –
7 | Cc1cc(Nc2ncn(-c3cc(F)cc(F)c3)n2)cc(N2CC(NCCO)C2)c1 [Compound 791, 2-[[1-[3-[[1-(3,5-difluorophenyl)-1,2,4-triazol-3-yl]amino]-5-methyl-phenyl]azetidin-3-yl]amino]ethanol] | – | – | – | – | 10 to 100 | ≤ 1
8 | Cc1cc(Nc2ncn(-c3ccccc3)n2)cc(N2CC3(C2)CN(C(C)C)C3)c1 [Compound 1034, N-[3-(2-isopropyl-2,6-diazaspiro[3.3]heptan-6-yl)-5-methyl-phenyl]-1-phenyl-1,2,4-triazol-3-amine] | – | – | – | – | 10 to 100 | ≤ 1
9 | Cc1cc(Nc2ncn(-c3ccccc3)n2)cc(C2CCCN(C3COC3)C2)c1 (stereo not shown) [Compound 248, N-[3-methyl-5-[1-(oxetan-3-yl)-3-piperidyl]phenyl]-1-phenyl-1,2,4-triazol-3-amine] | – | – | 100 to 1000 | 1 to 10 | – | –
10 | Cc1cc(Nc2ncn(C)n2)cc(Nc2ncn(-c3ccccc3)n2)c1 [Compound 676, 5-methyl-N3-(1-methyl-1,2,4-triazol-3-yl)-N1-(1-phenyl-1,2,4-triazol-3-yl)benzene-1,3-diamine] | 10 to 100 | ≤ 1 | – | – | – | –
11 | COCC1CCN(c2cc(C)cc(Nc3ncn(-c4cc(F)cc(F)c4)n3)c2)CC1 [Compound 162, 1-(3,5-difluorophenyl)-N-[3-[4-(methoxymethyl)-1-piperidyl]-5-methyl-phenyl]-1,2,4-triazol-3-amine] | – | – | ≤ 1 | ≤ 1 | – | –
12 | Cc1cc(Nc2ncn(-c3ccc(F)c(F)c3)n2)cc(OC2CCCOC2)c1 (stereo not shown) [Compound 638, 1-(3,4-difluorophenyl)-N-(3-methyl-5-tetrahydropyran-3-yloxy-phenyl)-1,2,4-triazol-3-amine] | 10 to 100 | 10 to 100 | – | – | – | –
13 | c1ccc(-n2cnc(Nc3cc(C4CC4)cc(N4CCN(C5COC5)CC4)c3)n2)cc1 [Compound 47, N-[3-cyclopropyl-5-[4-(oxetan-3-yl)piperazin-1-yl]phenyl]-1-phenyl-1,2,4-triazol-3-amine] | – | – | 100 to 1000 | ≤ 1 | – | –
14 | Cc1cc(Nc2ncn(-c3cc(F)cc(F)c3)n2)cc(N2CCN(CC3COCCO3)CC2)c1 (stereo not shown) [Compound 949, 1-(3,5-difluorophenyl)-N-[3-[4-(1,4-dioxan-2-ylmethyl)piperazin-1-yl]-5-methyl-phenyl]-1,2,4-triazol-3-amine] | – | – | – | – | 10 to 100 | 10 to 100
15 | Cc1cc(Nc2ncn(-c3ccccc3)n2)cc(N2CCC(F)CC2)n1 [Compound 430, 2-(4-fluoro-1-piperidyl)-6-methyl-N-(1-phenyl-1,2,4-triazol-3-yl)pyridin-4-amine] | 100 to 1000 | ≤ 1 | – | – | – | –
16 | Cc1cc(Nc2ncn(-c3cccc(F)c3)n2)c(F)c(N2CCN(C3COC3)CC2)c1 [Compound 955, N-[2-fluoro-5-methyl-3-[4-(oxetan-3-yl)piperazin-1-yl]phenyl]-1-(3-fluorophenyl)-1,2,4-triazol-3-amine] | – | – | – | – | 10 to 100 | 1 to 10
17 | Cc1cc(Nc2ncn(-c3cc(F)cc(F)c3)n2)cc(N2CCC(O)CC2)c1 [Compound 238, 1-[3-[[1-(3,5-difluorophenyl)-1,2,4-triazol-3-yl]amino]-5-methyl-phenyl]piperidin-4-ol] | – | – | 1000 to 10000 | 100 to 1000 | – | –
18 | Fc1ccc(-n2cnc(Nc3cc(C(F)F)cc(N4CCN(C5COC5)CC4)n3)n2)cc1 [Compound 806, 4-(difluoromethyl)-N-[1-(4-fluorophenyl)-1,2,4-triazol-3-yl]-6-[4-(oxetan-3-yl)piperazin-1-yl]pyridin-2-amine] | – | – | – | – | 1 to 10 | ≤ 1
19 | CC(C)(O)[C@@H]1CN(c2cc(Nc3ncn(-c4cc(F)cc(F)c4)n3)cc(C(F)(F)F)c2)CCN1 [Compound 123, 2-[(2S)-4-[3-[[1-(3,5-difluorophenyl)-1,2,4-triazol-3-yl]amino]-5-(trifluoromethyl)phenyl]piperazin-2-yl]propan-2-ol] | – | – | 1 to 10 | ≤ 1 | – | –
20 | Fc1ccc(-n2cnc(Nc3cc(Cl)nc(N4CCOCC4)c3)n2)cc1F [Compound 100, 2-chloro-N-[1-(3,4-difluorophenyl)-1,2,4-triazol-3-yl]-6-morpholino-pyridin-4-amine] | – | – | 100 to 1000 | 100 to 1000 | – | –
21 | Cc1cc(Nc2ncn(-c3cc(F)cc(F)c3)n2)cc(N2CC(S(C)(=O)=O)C2)c1 [Compound 1037, 1-(3,5-difluorophenyl)-N-[3-methyl-5-(3-methylsulfonylazetidin-1-yl)phenyl]-1,2,4-triazol-3-amine] | – | – | – | – | 10 to 100 | ≤ 1
22 | Cc1cc(Nc2ncn(-c3cc(F)cc(F)c3)n2)cc(OCC2CC(F)(F)C2)c1 [Compound 706, N-[3-[(3,3-difluorocyclobutyl)methoxy]-5-methyl-phenyl]-1-(3,5-difluorophenyl)-1,2,4-triazol-3-amine] | 1 to 10 | 1 to 10 | – | – | – | –
23 | CC(=O)OCC(COC(C)=O)N1CCN(c2cc(C)cc(Nc3ncn(-c4cc(F)cc(F)c4)n3)c2F)CC1 [Compound 923, [3-acetoxy-2-[4-[3-[[1-(3,5-difluorophenyl)-1,2,4-triazol-3-yl]amino]-2-fluoro-5-methyl-phenyl]piperazin-1-yl]propyl] acetate] | – | – | – | – | 10 to 100 | 1 to 10
